Measured values taken from patent EP4671262A1, “NOVEL PEPTIDE EXHIBITING SKIN CONDITION IMPROVEMENT ACTIVITY AND COSMETIC COMPOSITION CONTAINING SAME” (Daebong LS Co., Ltd., priority 2023, dated 2024).

Key:
B16F10 cells = assay: Melanin synthesis inhibition in α-MSH-stimulated melanocytes; format: cell-based, Mouse; conditions: 72 hours, α-MSH alone = 100
Method: Mouse-derived melanocytes (B16F10 cells) were obtained from the American Type Culture Collection (ATCC) and used. The cells were cultured in Dulbecco's Modified Eagle's Medium (DMEM) supplemented with 1% penicillin-streptomycin and 10% fetal bovine serum (FBS) at 37 °C in a 5% CO2 incubator, and subcultured every 3 to 4 days.
B16F10 cells were seeded at 6.0 × 10^4 cells/well in a 6-well plate and cultured for 24 hours at 37 °C in a 5% CO2 incubator. The culture medium was then replaced with phenol red-free, serum-free DMEM, followed by treatment with α-MSH, a melanin production-inducing hormone, and the peptide from the above Preparation Example at concentrations ranging from 1 to 100 µM. The cells were incubated for 72 hours, after which they were collected and lysed with 1 N NaOH in an 80 °C heating block to dissolve intracellular melanin. The absorbance of the resulting solution was measured at 490 nm. The control group was treated with arbutin at a concentration of 500 µg/mL.

NHDF cells = assay: Procollagen Type I Peptide (PIP) production, EIA of culture supernatant; format: cell-based, Human; conditions: 24 hours, untreated group = 100
Method: Normal Human Dermal Fibroblasts (NHDF) were obtained from Lonza (Lonza Walkersville, Inc.) and cultured in FBM (Fibroblast Basal Medium) supplemented with 0.1% hFGF-B, insulin, GA-1000, and 2% FBS at 37°C in a 5% CO2 incubator. Subculture was performed every 2 to 3 days.
NHDF cells were seeded at 2.0 × 10^4 cells/well in a 24-well plate and incubated for 24 hours at 37°C in a 5% CO2 incubator. After incubation, the culture medium was replaced with serum-free FBM, and the peptide prepared in the above Example was applied at concentrations of 1-100 µM, followed by incubation for 24 hours. The supernatant from each experimental group was collected, and the amount of procollagen released into the medium was measured. The positive control group was treated with ascorbic acid at a concentration of 0.001 v/v%. Measurement of procollagen levels was performed using a Procollagen Type I Peptide (PIP) EIA Kit (Takara Biomedical Co.) according to the manufacturer's protocol. The quantitative results of procollagen type I peptide production following treatment with the peptide of the Example are shown in Table 2 and Fig. 3.

HaCaT cells = assay: Hyaluronic acid (HA) production, ELISA of culture supernatant; format: cell-based, human; conditions: 24 hours, untreated group = 100
Method: The HaCaT human keratinocyte cell line was obtained from Cell Line Service GmbH (Germany). The cells were cultured in DMEM containing 1% penicillin-streptomycin and 10% fetal bovine serum (FBS) at 37°C in a 5% CO2 incubator, and subculture was performed every 2 to 3 days.
HaCaT cells were seeded at 1.0 × 10^5 cells/well in a 24-well plate and incubated for 24 hours at 37°C in a 5% CO2 incubator. After incubation, the culture medium was replaced with serum-free DMEM, and the peptide prepared in the above Example was applied at concentrations of 50-200 µM, followed by incubation for 24 hours. The supernatant from each experimental group was collected, and the amount of hyaluronic acid (HA) released into the medium was measured. The positive control group was treated with N-acetylglucosamine at a concentration of 10 mM. Measurement of hyaluronic acid production was conducted using a Hyaluronic Acid ELISA Kit (Cusabio Biotechnology Co., Ltd.) following the manufacturer's protocol.

OC[C@H]1O[C@@H](Oc2ccc(O)cc2)[C@H](O)[C@@H](O)[C@@H]1O [Arbutin, arbutin]
Melanin production (%) (B16F10 cells; 500 µg/mL (control) with α-MSH (200 nM)): 59.6±0.8%

O=C1O[C@H]([C@@H](O)CO)C(O)=C1O [Asc.A, ascorbic acid]
Procollagen production (%) (NHDF cells; 10 µg/mL (positive control)): 159.45±3.8%

CC(=O)N[C@H]1C(O)O[C@H](CO)[C@@H](O)[C@@H]1O (stereo partly shown) [NAG, N-acetylglucosamine]
Hyaluronic acid production (%) (HaCaT cells; 10 mM (positive control)): 125.52±1.18%

Ala-Ala-Gln-Pro-Arg (AAQPR; printed: Ala-Ala-Gln-Pro-Arg)
Hyaluronic acid production (%) (HaCaT cells; 50 µM): 107.14±1.08% | Hyaluronic acid production (%) (HaCaT cells; 100 µM): 130.93±0.59% | Hyaluronic acid production (%) (HaCaT cells; 200 µM): 136.91±6.87% | Procollagen production (%) (NHDF cells; 1 µM): 105.45±3.15% | Procollagen production (%) (NHDF cells; 10 µM): 129.75±9.74% | Procollagen production (%) (NHDF cells; 50 µM): 132.64±13.74% | Procollagen production (%) (NHDF cells; 100 µM): 134.92±1.3% | Melanin production (%) (B16F10 cells; 1 µM with α-MSH (200 nM)): 100.86±4.32% | Melanin production (%) (B16F10 cells; 10 µM with α-MSH (200 nM)): 89.62±2.95% | Melanin production (%) (B16F10 cells; 100 µM with α-MSH (200 nM)): 79.76±4.18%
